Results on nine compounds are retold here after PubChem BioAssay (NCI).

SMILES strings stand for the structures.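 Cultured in 96-well plates, cells were exposed to test compound for 48 hours across five concentrations. TGI denotes the concentration required for complete inhibition of growth.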 Bounds are passed on as bounds.

Some test systems named below: DLD-1 colon; DMS 114 small cell lung; DMS 273 small cell lung; KM20L2 colon; LXFL 529 NSCLC; M19-MEL melanoma; XF 498 CNS; RXF-631 renal; P388/ADR leukemia; SN12K1 renal; P388 leukemia.
Common to all, as to assay: NCI tumour cell line growth inhibition, 48 h

Consider `COC(=O)C1=C(C(=O)OC)SC(=CC#CC=C2SC(C(=O)OC)=C(C(=O)OC)S2)S1`, for which the TGI in the assay with DLD-1 colon is over 54 µM; in the assay with DMS 114 small cell lung it was over 60.7 µM; in the assay on DMS 273 small cell lung it was 38.4 µM; in the assay with KM20L2 colon, 71.6 µM; in the assay with LXFL 529 NSCLC it was over 57.4 µM; in the assay on M19-MEL melanoma, over 100 µM. Besides, in the assay on XF 498 CNS, the TGI came to 19.1 µM.

`CCC1=C(C(C)=O)[C@@H]2CCCCC[C@@H](C(=O)OC)C2C1=O` (stereo not given in full): the TGI in the assay on DLD-1 colon, in the assay on DMS 114 small cell lung, with DMS 273 small cell lung, in the assay on KM20L2 colon, in the assay with LXFL 529 NSCLC and with M19-MEL melanoma was over 100 µM each time. In addition, the TGI in the assay with XF 498 CNS is over 100 µM.

For `CC(C)N1CC2CC(CN(C(=O)c3ccccc3)C2)C1`, the TGI in the assay with DMS 114 small cell lung, with DMS 273 small cell lung, in the assay with KM20L2 colon, in the assay with LXFL 529 NSCLC, with M19-MEL melanoma and in the assay on RXF-631 renal was over 100 µM in each case. The TGI with XF 498 CNS is over 100 µM.

With `NCCCCNCCCNC(=O)c1nc(-c2nc(CCN)sc2Cl)sc1Cl`, the TGI was over 100 µM with DLD-1 colon; 52.5 µM with DMS 114 small cell lung; over 100 µM in the assay with DMS 273 small cell lung; over 100 µM in the assay on KM20L2 colon; 11.1 µM with LXFL 529 NSCLC; over 100 µM with M19-MEL melanoma. The TGI in the assay with XF 498 CNS was over 100 µM.

Regarding `CN(C)CCNC(=O)c1cc(Cl)cc2ccc(-c3ccccc3)nc12`, the TGI in the assay with DLD-1 colon was determined as 12.9 µM; in the assay on DMS 114 small cell lung, 12.6 µM; with DMS 273 small cell lung it was 7.48 µM; with KM20L2 colon it was 13.1 µM; with M19-MEL melanoma, 11.4 µM; with P388/ADR leukemia it was 7.95 µM. For the same compound, the values for the TGI in the assay on SN12K1 renal and with XF 498 CNS were 5.81 µM and 5.04 µM, respectively.

For `O=S(=O)(O)c1ccc(N=Nc2ccc(N=Nc3ccc(/C=C/c4ccc(N=[N+]([O-])c5ccc(/C=C/c6ccc(N=Nc7ccc(N=Nc8ccc(S(=O)(=O)O)cc8)cc7)cc6S(=O)(=O)O)c(S(=O)(=O)O)c5)cc4S(=O)(=O)O)c(S(=O)(=O)O)c3)cc2)cc1`, the TGI with DLD-1 colon, in the assay with DMS 114 small cell lung, with DMS 273 small cell lung, in the assay with KM20L2 colon, in the assay with M19-MEL melanoma and in the assay on P388 leukemia was over 100 µM in each case. The TGI in the assay with P388/ADR leukemia, with SN12K1 renal and in the assay on XF 498 CNS was over 100 µM throughout.

For `CCOC(=O)C1(C#N)C(c2ccccc2)CC(O)(c2ccc(Cl)cc2)C(C(=O)c2ccc(Cl)cc2)C1c1ccccc1` (stereo not given), the TGI in the assay with DLD-1 colon, in the assay on DMS 114 small cell lung, in the assay on DMS 273 small cell lung, in the assay on KM20L2 colon, with LXFL 529 NSCLC and in the assay with M19-MEL melanoma was over 100 µM throughout. The compound also showed a TGI in the assay with XF 498 CNS of over 100 µM.

For `Cc1cc(C)nc(NS(=O)(=O)c2ccc(Nc3c4ccccc4nc4c(C(=O)N5CCN(CCOS(C)(=O)=O)CC5)cccc34)cc2)n1`, the TGI in the assay with DLD-1 colon, in the assay on DMS 114 small cell lung, in the assay with KM20L2 colon, with M19-MEL melanoma and with XF 498 CNS was over 100 µM in each case.

As to `CCCCOc1ccc(OCCCCCCCCCC[N+](C)(C)C)cc1`, the TGI came to 21.5 µM in the assay with DLD-1 colon; 6.75 µM in the assay on DMS 114 small cell lung; 4.25 µM in the assay with DMS 273 small cell lung; 3.87 µM with KM20L2 colon; 3.06 µM in the assay on P388 leukemia; 17.8 µM with P388/ADR leukemia. Moreover, the TGI in the assay on SN12K1 renal came to 8.54 µM; with XF 498 CNS it was 4.57 µM.
